In ChEMBL document CHEMBL2429805, “Studies toward the development of new silicon-containing building blocks for the direct (18)F-labeling of peptides” (J Med Chem, 2013):
pIC50: −log10 of the molar value.

Legend:
[1] = target: T1, Gastrin-releasing peptide receptor (Homo sapiens, UniProt P30550); assay: Binding affinity to GRP receptor (unknown origin)
[2] = target: T1, Gastrin-releasing peptide receptor; assay: Displacement of [125I]-Tyr4-bombesin from GRP receptor in human PC3 cells after 1 hr by gamma-counting analysis; assay type: cell-based, PC-3
Heart [3] = assay: Biodistribution in heart of NMRI nude mouse xenografted with human PC3 cells after 182 mins by gamma-counting analysis; assay type: ADME, organism-based, PC-3; settings: in vivo
Bone [4] = assay: Biodistribution in bone of NMRI nude mouse xenografted with human PC3 cells after 182 mins by gamma-counting analysis; assay type: ADME, organism-based, Bone element, PC-3; settings: in vivo
Lung [5] = assay: Biodistribution in lung of NMRI nude mouse xenografted with human PC3 cells after 182 mins by gamma-counting analysis; assay type: ADME, organism-based, PC-3; settings: in vivo
Bone [6] = assay: Biodistribution in bone of NMRI nude mouse xenografted with human PC3 cells after 104 mins by gamma-counting analysis; assay type: ADME, organism-based, Bone element, PC-3; settings: in vivo
Stomach [7] = assay: Biodistribution in stomach of NMRI nude mouse xenografted with human PC3 cells after 182 mins by gamma-counting analysis; assay type: ADME, organism-based, PC-3; settings: in vivo
Pancreas [8] = assay: Biodistribution in pancreas of NMRI nude mouse xenografted with human PC3 cells after 182 mins by gamma-counting analysis; assay type: ADME, organism-based, PC-3; settings: in vivo
[9] = Biodistribution in fat of NMRI nude mouse xenografted with human PC3 cells after 104 mins by gamma-counting analysis; assay type: ADME, organism-based, Adipose tissue, PC-3; settings: in vivo
Mus musculus [10] = assay: Biodistribution in prostate of NMRI nude mouse xenografted with human PC3 cells after 104 mins by gamma-counting analysis; assay type: ADME, organism-based, Prostate gland, PC-3; settings: in vivo
Mus musculus [11] = assay: Biodistribution in adrenal gland of NMRI nude mouse xenografted with human PC3 cells after 182 mins by gamma-counting analysis; assay type: ADME, organism-based, PC-3; settings: in vivo
Muscle tissue [12] = assay: Biodistribution in muscle of NMRI nude mouse xenografted with human PC3 cells after 104 mins by gamma-counting analysis; assay type: ADME, organism-based, PC-3; settings: in vivo
Mus musculus [13] = assay: Biodistribution in tumor of NMRI nude mouse xenografted with human PC3 cells after 104 mins by gamma-counting analysis; assay type: ADME, organism-based, Neoplasm, PC-3; settings: in vivo
[14] = Ratio of biodistribution in tumor to blood of NMRI nude mouse xenografted with human PC3 cells after 104 mins by gamma-counting analysis; assay type: ADME, organism-based, PC-3; settings: tumour
[15] = Ratio of biodistribution in tumor to muscle of NMRI nude mouse xenografted with human PC3 cells after 104 mins by gamma-counting analysis; assay type: ADME, organism-based, PC-3; settings: in vivo
Liver [16] = assay: Biodistribution in liver of NMRI nude mouse xenografted with human PC3 cells after 104 mins by gamma-counting analysis; assay type: ADME, organism-based, PC-3; settings: in vivo
Pancreas [17] = assay: Biodistribution in pancreas of NMRI nude mouse xenografted with human PC3 cells after 104 mins by gamma-counting analysis; assay type: ADME, organism-based, PC-3; settings: in vivo
Kidney [18] = assay: Biodistribution in kidney of NMRI nude mouse xenografted with human PC3 cells after 182 mins by gamma-counting analysis; assay type: ADME, organism-based, PC-3; settings: in vivo
Mus musculus [19] = assay: Biodistribution in gallbladder of NMRI nude mouse xenografted with human PC3 cells after 104 mins by gamma-counting analysis; assay type: ADME, organism-based, Gall bladder, PC-3; settings: in vivo
Stomach [20] = assay: Biodistribution in stomach of NMRI nude mouse xenografted with human PC3 cells after 104 mins by gamma-counting analysis; assay type: ADME, organism-based, PC-3; settings: in vivo
Spleen [21] = assay: Biodistribution in spleen of NMRI nude mouse xenografted with human PC3 cells after 104 mins by gamma-counting analysis; assay type: ADME, organism-based, PC-3; settings: in vivo
Muscle tissue [22] = assay: Biodistribution in muscle of NMRI nude mouse xenografted with human PC3 cells after 182 mins by gamma-counting analysis; assay type: ADME, organism-based, PC-3; settings: in vivo
[23] = Stability of the compound in PBS buffer up to 2 hrs; assay type: physicochemical
[24] = Biodistribution in urine of NMRI nude mouse xenografted with human PC3 cells after 182 mins by gamma-counting analysis; assay type: ADME, organism-based, PC-3; settings: in vivo
Mus musculus [25] = assay: Biodistribution in gallbladder of NMRI nude mouse xenografted with human PC3 cells after 182 mins by gamma-counting analysis; assay type: ADME, organism-based, Gall bladder, PC-3; settings: in vivo
Mus musculus [26] = assay: Biodistribution in prostate of NMRI nude mouse xenografted with human PC3 cells after 182 mins by gamma-counting analysis; assay type: ADME, organism-based, Prostate gland, PC-3; settings: in vivo
Liver [27] = assay: Biodistribution in liver of NMRI nude mouse xenografted with human PC3 cells after 182 mins by gamma-counting analysis; assay type: ADME, organism-based, PC-3; settings: in vivo
[28] = Ratio of biodistribution in tumor to muscle of NMRI nude mouse xenografted with human PC3 cells after 182 mins by gamma-counting analysis; assay type: ADME, organism-based, PC-3; settings: in vivo
Kidney [29] = assay: Biodistribution in kidney of NMRI nude mouse xenografted with human PC3 cells after 104 mins by gamma-counting analysis; assay type: ADME, organism-based, PC-3; settings: in vivo
[30] = Biodistribution in fat of NMRI nude mouse xenografted with human PC3 cells after 182 mins by gamma-counting analysis; assay type: ADME, organism-based, Adipose tissue, PC-3; settings: in vivo
Intestine [31] = assay: Biodistribution in intestine of NMRI nude mouse xenografted with human PC3 cells after 104 mins by gamma-counting analysis; assay type: ADME, organism-based, PC-3; settings: in vivo
[32] = Ratio of biodistribution in tumor to blood of NMRI nude mouse xenografted with human PC3 cells after 182 mins by gamma-counting analysis; assay type: ADME, organism-based, PC-3; settings: tumour
Blood [33] = assay: Biodistribution in blood of NMRI nude mouse xenografted with human PC3 cells after 104 mins by gamma-counting analysis; assay type: ADME, organism-based, PC-3; settings: in vivo
Spleen [34] = assay: Biodistribution in spleen of NMRI nude mouse xenografted with human PC3 cells after 182 mins by gamma-counting analysis; assay type: ADME, organism-based, PC-3; settings: in vivo
Mus musculus [35] = assay: Biodistribution in tumor of NMRI nude mouse xenografted with human PC3 cells at 3.6 to 5.1 MBq after 62 to 170 mins by PET imaging analysis; assay type: ADME, organism-based, Neoplasm, PC-3; settings: in vivo
Blood [36] = assay: Biodistribution in blood of NMRI nude mouse xenografted with human PC3 cells after 182 mins by gamma-counting analysis; assay type: ADME, organism-based, PC-3; settings: in vivo
Heart [37] = assay: Biodistribution in heart of NMRI nude mouse xenografted with human PC3 cells after 104 mins by gamma-counting analysis; assay type: ADME, organism-based, PC-3; settings: in vivo
Intestine [38] = assay: Biodistribution in intestine of NMRI nude mouse xenografted with human PC3 cells after 182 mins by gamma-counting analysis; assay type: ADME, organism-based, PC-3; settings: in vivo
Lung [39] = assay: Biodistribution in lung of NMRI nude mouse xenografted with human PC3 cells after 104 mins by gamma-counting analysis; assay type: ADME, organism-based, PC-3; settings: in vivo
[40] = Biodistribution in urine of NMRI nude mouse xenografted with human PC3 cells after 104 mins by gamma-counting analysis; assay type: ADME, organism-based, PC-3; settings: in vivo
Mus musculus [41] = assay: Biodistribution in adrenal gland of NMRI nude mouse xenografted with human PC3 cells after 104 mins by gamma-counting analysis; assay type: ADME, organism-based, PC-3; settings: in vivo
Mus musculus [42] = assay: Biodistribution in tumor of NMRI nude mouse xenografted with human PC3 cells after 182 mins by gamma-counting analysis; assay type: ADME, organism-based, Neoplasm, PC-3; settings: in vivo
Mus musculus [43] = assay: Biodistribution in abdominal region of NMRI nude mouse xenografted with human PC3 cells at 3.6 to 5.1 MBq after 62 to 170 mins by PET imaging analysis; assay type: ADME, organism-based, Abdomen, PC-3; settings: in vivo

T1 sequence (P30550 whole entry): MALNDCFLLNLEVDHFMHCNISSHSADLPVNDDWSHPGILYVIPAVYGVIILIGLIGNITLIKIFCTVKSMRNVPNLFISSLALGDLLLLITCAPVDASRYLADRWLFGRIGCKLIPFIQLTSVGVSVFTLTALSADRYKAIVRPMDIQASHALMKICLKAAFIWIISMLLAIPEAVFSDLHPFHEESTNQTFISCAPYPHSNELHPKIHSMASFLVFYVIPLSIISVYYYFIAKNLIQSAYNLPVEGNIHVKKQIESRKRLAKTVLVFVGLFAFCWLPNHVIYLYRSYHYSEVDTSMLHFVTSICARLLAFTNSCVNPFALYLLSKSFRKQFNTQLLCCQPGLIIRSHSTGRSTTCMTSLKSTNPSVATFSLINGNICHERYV

CC(C)C[C@H](NC(=O)C[C@H](O)[C@H](CC(C)C)NC(=O)[C@H](Cc1cnc[nH]1)NC(=O)CN(C)C(=O)[C@@H](NC(=O)[C@H](C)NC(=O)[C@H](Cc1c[nH]c2ccccc12)NC(=O)[C@H](CCC(N)=O)NC(=O)CCCCNC(=O)[C@H](CCCNC(=N)N)NC(=O)Cc1ccc([Si](F)(C(C)(C)C)C(C)(C)C)cc1)C(C)C)C(N)=O
pIC50 [1]: 7.64

CC(C)C[C@H](NC(=O)C[C@H](O)[C@H](CC(C)C)NC(=O)[C@H](Cc1cnc[nH]1)NC(=O)CN(C)C(=O)[C@@H](NC(=O)[C@H](C)NC(=O)[C@H](Cc1c[nH]c2ccccc12)NC(=O)[C@H](CCC(N)=O)NC(=O)CCCCNC(=O)[C@H](CCCNC(=N)N)NC(=O)C(O)C(O)C(=O)NCCc1ccc([Si](F)(C(C)(C)C)C(C)(C)C)cc1)C(C)C)C(N)=O (stereo partly drawn)
pIC50 [2]: 7.64

CC(C)C[C@H](NC(=O)C[C@H](O)[C@H](CC(C)C)NC(=O)[C@H](Cc1cnc[nH]1)NC(=O)CN(C)C(=O)[C@@H](NC(=O)[C@H](C)NC(=O)[C@H](Cc1c[nH]c2ccccc12)NC(=O)[C@H](CCC(N)=O)NC(=O)CCCCNC(=O)[C@H](CS(=O)(=O)O)NC(=O)[C@H](CS(=O)(=O)O)NC(=O)C(O)C(O)C(=O)NCCc1ccc([Si]([18F])(C(C)(C)C)C(C)(C)C)cc1)C(C)C)C(N)=O (stereo partly drawn)
Drug uptake (Heart [3]): 0.85 % ID/g | Drug uptake (Bone [4]): 0.92 % ID/g | Drug uptake (Lung [5]): 1.94 % ID/g | Drug uptake (Bone [6]): 1.09 % ID/g | Drug uptake (Stomach [7]): 0.8 % ID/g | Drug uptake (Pancreas [8]): 21 % ID/g | Drug uptake [9]: 1.24 % ID/g | Drug uptake (Mus musculus [10]): 0.44 % ID/g | Drug uptake (Mus musculus [11]): 2.07 % ID/g | Drug uptake (Muscle tissue [12]): 0.69 % ID/g | Drug uptake (Mus musculus [13]): 3.47 % ID/g | Ratio [14]: 0.65 | Ratio [15]: 5.03 | Drug uptake (Liver [16]): 25 % ID/g | Drug uptake (Pancreas [17]): 46 % ID/g | Drug uptake (Kidney [18]): 4.1 % ID/g | Drug uptake (Mus musculus [19]): 36 % ID/g | Drug uptake (Stomach [20]): 0.42 % ID/g | Drug uptake (Spleen [21]): 2.15 % ID/g | Drug uptake (Muscle tissue [22]): 0.29 % ID/g | Stability [23]: Stable | Drug uptake [24]: 20 % ID/g | Drug uptake (Mus musculus [25]): 128 % ID/g | Drug uptake (Mus musculus [26]): 0.29 % ID/g | Drug uptake (Liver [27]): 13 % ID/g | Ratio [28]: 8.41 | Drug uptake (Kidney [29]): 6 % ID/g | Drug uptake [30]: 0.51 % ID/g | Drug uptake (Intestine [31]): 12.6 % ID/g | Ratio [32]: 0.95 | Drug uptake (Blood [33]): 5.37 % ID/g | Drug uptake (Spleen [34]): 1.32 % ID/g | Drug uptake (Mus musculus [35]): Active | Drug uptake (Blood [36]): 2.58 % ID/g | Drug uptake (Heart [37]): 1.37 % ID/g | Drug uptake (Intestine [38]): 9.5 % ID/g | Drug uptake (Lung [39]): 4.2 % ID/g | Drug uptake [40]: 25 % ID/g | Drug uptake (Mus musculus [41]): 5.01 % ID/g | Drug uptake (Mus musculus [42]): 2.44 % ID/g | Drug uptake (Mus musculus [43]): Not Active
